Test results as given in publication PMC5983452 (PLoS ONE, 2018).
Several values for one entry are separate records, joined by “and”; a condition that tells them apart may be missing. Equal entries are not always repeated. Entries after “also recorded” stand apart in the source; their conditions may differ. Structures can show the parent of a compound that is named as a salt. Where two headings read alike, the source gives them in different places.

Key:
A549 cells = test: Trametinib growth inhibition in combination with EPZ028862; assay type: cell-based; conditions: 2, 5 and 7 days
From the text: Plotted data is the average of three biological replicates. Error bars represent standard deviation. (PDF) Click here for additional data file.

[1] = Hepatocyte stability, mouse; assay type: in vitro ADME, CD-1 mice; conditions: male, CD-1, mouse, cryopreserved hepatocytes, read-out: CLint measured with hepatocytes, Mouse
[2] = Hepatocyte stability, rat; assay type: in vitro ADME, SD rats
[3] = Hepatocyte stability, dog; assay type: in vitro ADME, beagle dogs; conditions: male, beagle, cryopreserved hepatocytes, read-out: CLint measured with hepatocytes, Dog
[4] = Hepatocyte stability, human; assay type: in vitro ADME, humans; conditions: for hepatocyte CLint at 1 µM: both sexes, human, cryopreserved hepatocytes, read-out: CLint measured with hepatocytes, Human
[5] = Dog pharmacokinetic study; assay type: in vivo, male beagle dogs; conditions: male Beagle
Method: (§1) 2. […] Food was returned 4 hours after dosing. […] 4. […] Food was returned 4 hours after dosing. […] Supplemental Results:SMYD2 compound characterization […] The […] nM (Figure S8A).

[6] = Monkey (NHP) pharmacokinetic study; assay type: in vivo, male cynomolgus monkeys; conditions: cynomolgus monkey, male Cynomolgus
Method: as §1

in vitro = conditions: human, plasma, pH 7.4, Human fu (unbound fraction)
Method: (§2) Caco-2 permeability. Caco-2 cells (obtained from the ATCC), between passage numbers 40 to 60, were seeded onto Millipore
(§3) Multiscreen plates at 1x10^5 cells/cm2 in Dulbecco's Modified Eagle Medium. Media was changed every two or three days. On
(§4) Day 20, the permeability study was performed using Hanks Balanced Salt Solution (HBSS) pH 7.4 buffer with 25 mM HEPES and
(§5) Incubations were carried out in an atmosphere of 5% CO2 with a relative humidity of
(§6) The monolayers were prepared by rinsing both basolateral and apical surfaces twice with HBSS at 37°C. Cells were
then incubated with HBSS in both apical and basolateral compartments for 40 min to stabilize physiological parameters. HBSS […]
(§7) removed and apical and basolateral samples diluted for analysis by LC-MS/MS. Permeability was assessed in duplicate, on two
different occasions. […] Compounds were quantified by LC-MS/MS analysis using a 5 point calibration curve. The starting concentration (C0) was determined from the dosing solution and
experimental recovery calculated from C0 and both apical and basolateral compartment concentrations. […]
(Papp) for each compound was calculated as: (dQ/dt)/(C0xA), where dQ/dt is the rate of permeation of the drug across the cells, C0 […]
Plasma protein binding. Plasma protein binding was assessed by equilibrium dialysis utilizing the HT-dialysis cell format with a […]

[7] = Mouse pharmacokinetic study; conditions: male, CD-1, mouse; for half-life / Vd / clearance / Tmax / bioavailability: plasma
Method: Mouse, rat, dog and monkey pharmacokinetic studies. The studies were performed in accordance with the AAALAC International
administered intravenousely (1 mg/kg in saline, tail vein injection, 2 mL/kg) and orally (5 mg/kg in 0.5%
MC/0.1% Tween 80, oral gavage, 10 mL/kg). Animals were weighed prior to dose administration and had free
access to water and food. At pre-specified time intervals up to 24 hours post-dose, blood samples (approximately
30 μL) were collected from saphenous vein into polypropylene micro centrifuge tubes (containing 2 μL of 1000
IU/ml Heparin-Na as anticoagulant) and stored on wet ice until processed to plasma by centrifugation (2000 rpm
for 5 min at 4C) within 30 min of collection. In the same study, urine was collected for 24 hours. For
intravenousely (2 mg/kg in ethanol:saline (10:90) solution, tail vein injection, 2 mL/kg) and orally (100 mg/kg in
ethanol:saline (20:80) solution, oral gavage, 10 mL/kg). Animals were weighed prior to dose administration and

SMYD2 = SMYD2 (Homo sapiens, UniProt Q9NRG4); test: SMYD2 biochemical methylation assay (3H-SAM, H3,1–29 peptide, flashplate); parameters: Full length FLAG-SMYD2 and C-terminally Avi-tagged full length SMYD2 (SMYD2-Avi) were cloned into pFastbac vectors; FLAG (N); His tag with TEV cleavage site (N, cleaved yes); made in house; host or cells: Sf9 insect cells (baculovirus)
Sequence of SMYD2 (Q9NRG4 whole entry): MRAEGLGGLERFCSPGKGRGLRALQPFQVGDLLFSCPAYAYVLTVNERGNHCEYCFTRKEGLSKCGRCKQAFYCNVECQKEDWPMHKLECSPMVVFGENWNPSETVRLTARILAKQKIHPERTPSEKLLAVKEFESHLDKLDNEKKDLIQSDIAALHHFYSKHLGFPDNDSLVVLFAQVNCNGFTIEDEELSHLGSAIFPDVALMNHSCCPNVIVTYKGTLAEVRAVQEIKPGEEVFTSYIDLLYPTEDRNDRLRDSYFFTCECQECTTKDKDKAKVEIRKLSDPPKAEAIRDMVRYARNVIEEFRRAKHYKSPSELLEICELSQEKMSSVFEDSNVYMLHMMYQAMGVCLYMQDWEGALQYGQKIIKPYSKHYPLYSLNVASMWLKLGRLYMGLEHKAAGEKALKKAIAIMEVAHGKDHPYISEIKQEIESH
Method: Full length FLAG-SMYD2 and C-terminally Avi-tagged full length SMYD2 (SMYD2-Avi) were cloned into pFastbac vectors containing an N-terminal His tag with TEV cleavage site. Virus production was performed using standard protocols and the proteins were coexpressed in either Sf9 (SMYD2) or Hi Five (SMYD2-Avi) cells. After harvest by centrifugation, cell pellets for both proteins were resuspended, sonicated, and then centrifuged to remove cell debris. Protein was purified using nickel affinity chromatography before and after TEV cleavage in a similar fashion as SMYD3. […] SMYD2-Avi was biotinylated using His-tagged BirA enzyme after dialysis into a low salt buffer and the BirA was removed with a final nickel affinity column. […] SMYD3 assays were performed as previously described using N-terminally GST-tagged MAP3K2 protein substrate. […] Reactions were conducted at room temperature with enzyme and inhibitor incubated for 30 minutes before initiating the reaction with substrates. Dose-response curves were tested in duplicate in each experiment. […] Quenched reactions were transferred to a streptavidin-coated flashplate (Perkin Elmer) for capture of the biotinylated peptide. After 2 h incubation at room temperature, the flashplate was washed once with 0.1% Tween-20 and read on a Perkin Elmer Topcount NXT plate reader. Substrate apparent KM values were determined by measuring the initial velocities (v0) in duplicate while varying one substrate at fixed concentration of the second substrate. […] Percent inhibition by compound (% inh) was calculated from Eq 3 %inh=(1-([…] the signal in the presence of compound and max and min are the signals for the DMSO and background controls respectively. […] Mechanism of inhibition was determined by measuring the inhibitor IC50 values while varying the concentration of one substrate at a fixed concentration of the second substrate equal to its KM value. The inhibition constant Ki was calculated from fitting the IC50 versus varied substrate concentration data using the Cheng-Prusoff equations for mixed-type and noncompetitive inhibition below. α is the coefficient accounting for differences in inhibitor affinity between binding enzyme forms after versus before substrate binding.

Caco-2 permeability = conditions: human, 10 µM
Method: as §2, §3, §4, §5, §6
(§8) then incubated with HBSS in both apical and basolateral compartments for 40 min to stabilize physiological parameters. HBSS
(§9) was then removed from the apical or basolateral compartment and replaced with 10 µM test compound dosing solutions (1% final
(§10) DMSO). The pH of supplemented HBSS was 6.5 and 7.5 in the apical and basolateral compartments, respectively. The apical
(§11) compartment inserts were then placed into ‘companion’ plates containing fresh HBSS.
as §7
(§12) different occasions. On each plate atenolol and propanolol were run as controls. Compounds were quantified by LC-MS/MS analysis using a 5 point calibration curve. The starting concentration (C0) was determined from the dosing solution and
(§13) experimental recovery calculated from C0 and both apical and basolateral compartment concentrations. The permeability coefficient
(§14) (Papp) for each compound was calculated as: (dQ/dt)/(C0xA), where dQ/dt is the rate of permeation of the drug across the cells, C0
(§15) is the donor compartment concentration at time zero and A is the area of the cell monolayer.
(§16) Plasma protein binding. Plasma protein binding was assessed by equilibrium dialysis utilizing the HT-dialysis cell format with a
(§17) cellulose semi-permeable membrane (molecular weight cut-off of 5000 Da). Solutions of test compounds (1 µM, 0.5% final
(§18) DMSO concentration) were prepared in isotonic phosphate buffer (pH 7.4) and 100% pooled male CD-1 mouse plasma. The
(§19) buffer solution was added to one side of the membrane and the plasma solution to the other side. Incubations were performed in
(§20) Haloperidol was incubated in parallel as the control compound for each species. At the end of the incubation time, samples were taken from both sides of the membrane.
(§21) Following protein precipitation, the samples were analyzed by LC-MS/MS using two sets of calibration standards for protein free
(§22) (7 points) and protein containing solutions (6 points). Samples were quantified using standard curves prepared in the equivalent
(§23) matrix. The fraction unbound in plasma (fu) was calculated using the following equation:
(§24) Where, PC = sample concentration in protein containing side, PF = sample concentration in protein free side, and VCorrection =
(§25) correction factor for the volume shift i.e. ratio of the volume of the protein after dialysis to that before dialysis.

Caco-2 cells = test: Caco-2 permeability
Method: as §2, §3, §4, §5, §6, §8, §9, §10, §11, §7, §12, §13, §14, §15, §16, §17, §18, §19, §20, §21, §22, §23, §24, §25

[8] = plasma, IV 1 mg/kg, read-out: CLp
[9] = plasma, IV 1 mg/kg, read-out: Vss

For `NC1CCC(S(=O)(=O)N2C3CCC2CC(NC(=O)c2cc(C4CC4)on2)C3)CC1` [EPZ028862, N-((1R,3R,5S)-8-((1r,4R)-4-aminocyclohexylsulfonyl)-8-aza-bicyclo[3.2.1]octan-3-yl)-5-cyclopropylisoxazole-3-carboxamide hydrochloride], the “effect of 1 μM EPZ028862 on growth inhibition by trametinib” value (A549 cells) was “unaffected; also recorded: no effect”, the hepatocyte CLint at 1 µM [1] was 6.6 µL/min/1e6 cells and the “CLint measured with hepatocytes, Rat” value ([2]; 1 µM) was 3.5 µL/min/106 cells. For the same compound, the hepatocyte CLint at 1 µM ([2]; male, Sprague-Dawley, rat, cryopreserved hepatocytes, read-out: CLint measured with hepatocytes, Rat) was 5.2 µL/min/1e6 cells, the hepatocyte CLint at 1 µM [3] was < 3 µL/min/1e6 cells and the “CLint measured with hepatocytes, Human” value ([4]; 1 µM) was 3.7 µL/min/106 cells and < 3 µL/min/106 cells. The hepatocyte CLint at 1 µM [4] was 4.8 µL/min/1e6 cells, the MRT ([5]; plasma, IV 1 mg/kg, PO 5 mg/kg) was 7 ± 0.2 h and the bioavailability ([5]; plasma, IV 1 mg/kg, PO 5 mg/kg) was 70 ± 6%. For the same compound, the half-life ([5]; plasma, IV 1 mg/kg, PO 5 mg/kg) was 5.4 ± 0.1 h, the clearance [5, 8] was 13.9 ± 1.2 mL/min/kg and the Vd [5, 9] was 5.8 ± 0.6 L/kg. It also gave a Tmax ([5]; plasma, PO 5 mg/kg) of 1.5 ± 0.9 h, a CL renal ([5]; urine and plasma, IV 1 mg/kg) of 1.97 ± 0.38 mL/min/kg and an MRT ([6]; plasma, IV 1 mg/kg, PO 5 mg/kg) of 7.4 ± 1.5 h. It also gave a bioavailability ([6]; plasma, IV 1 mg/kg, PO 5 mg/kg) of 62 ± 13%, a half-life ([6]; plasma, IV 1 mg/kg, PO 5 mg/kg) of 5.6 ± 1.3 h and a clearance [6, 8] of 21.4 ± 3.4 mL/min/kg. The Vd [6, 9] was 9.5 ± 2.5 L/kg, the Tmax ([6]; plasma, PO 5 mg/kg) was 2 h and the CL renal ([6]; urine and plasma, IV 1 mg/kg) was 1.06 ± 0.84 mL/min/kg. It also gave a fraction unbound at 16 h, 1 µM (in vitro) of 0.71, a half-life [7] of 2 h and a Vd ([7]; iv, 1 mg/kg) of 9.5 L/kg. For the same compound, the clearance ([7]; iv, 1 mg/kg) was 79.8 mL/min/kg, the Tmax ([7]; po, 5 mg/kg) was 0.33 h and the bioavailability ([7]; po, 5 mg/kg) was ~100%. For the same compound, the CL renal ([7]; urine and plasma, iv, 1 mg/kg) was 23.6 mL/min/kg and the IC50 (SMYD2; tested in duplicate, read-out: selectivity panel result, SMYD2 (off-target)) was > 10000 nM.

`O=C(NC1CN(Cc2cnn(Cc3ccc(Cl)cc3)c2)C1)c1cn(C2CC2)nn1` [EPZ033294] gave a hepatocyte CLint at 1 µM [1] of 10.9 µL/min/1e6 cells, a hepatocyte CLint at 1 µM [4] of 6 µL/min/1e6 cells and a Papp A→B at 120 min, 10 µM (Caco-2 permeability; Caco-2, Papp,AB, apical pH 6.5 / basolateral pH 7.5, 120 min) of 2.18 ×10⁻⁶ cm/s. The Papp B→A at 120 min, 10 µM (Caco-2 permeability; Caco-2, Papp,BA, 120 min) was 64.3 ×10⁻⁶ cm/s, the “Caco-2 assay outcome in words” value (Caco-2 cells) was “both permeable and an efflux substrate” and the half-life [7] was 3.2 ± 1 h. For the same compound, the Vd ([7]; iv, 2 mg/kg) was 4.5 ± 1 L/kg, the clearance ([7]; iv, 2 mg/kg) was 37.4 ± 6.7 mL/min/kg and the bioavailability ([7]; oral, 10 mg/kg) was 241 ± 20%. For the same compound, the Tmax ([7]; po, 10 mg/kg) was 1.7 ± 0.6 h, the “mechanism of inhibition with respect to peptide substrate” value (SMYD2; 1 nM enzyme, 20 nM SAM, varied H3,1–29) was “noncompetitive” and the IC50 (SMYD2; IC50 at 20 nM SAM, 1 nM SMYD2, 60 nM H3,1-29, 20 nM SAM) was 2.8 ± 0.4 nM. The IC50 (SMYD2; IC50 at 200 nM SAM, 1 nM SMYD2, 60 nM H3,1-29, 200 nM SAM) was 3.2 ± 0.5 nM, the “mechanism of inhibition with respect to SAM” value (SMYD2; IC50 compared at two SAM concentrations differing by 10-fold) was “either noncompetitive or uncompetitive” and the IC50 (SMYD2; SMYD2, 20 nM SAM, 60 nM H3,1–29 peptide, read-out: Biochemical IC50) was 3.9 nM. For the same compound, the Ki (SMYD2; varied H3,1–29 peptide, Eq 6, read-out: Ki (noncompetitive versus peptide)) was 3.9 ± 0.4 nM.
